“And” between values parts separate entries of the source, which are not always exact repeats. Equal values may be shown once. Toxic doses and inconclusive results are not listed.
Tested on: L1210 leukemia ip in BDF1 mice, survival T/C
Test: NCI In Vivo Anticancer Drug Screen. Data for tumor model L1210 Leukemia (intraperitoneal) in B6D2F1 (BDF1) mice
Conditions: endpoint: mean survival time, higher = longer survival
In short: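 Transplanted-tumor mice were given test agent; controls received vehicle only. Survival readings from the two groups were divided (treated over control).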

[1] = dose: 100.0 mg/kg/injection, schedule: Q01DX009 (ip), vehicle: Klucel (hydroxypropylcellulose) (HPC)
[2] = dose: 100.0 mg/kg/injection, schedule: Q04DX003 (ip), vehicle: Klucel (hydroxypropylcellulose) (HPC)
[3] = dose: 200.0 mg/kg/injection, schedule: Q01DX009 (ip), vehicle: Klucel (hydroxypropylcellulose) (HPC)
[4] = dose: 200.0 mg/kg/injection, schedule: Q04DX003 (ip), vehicle: Klucel (hydroxypropylcellulose) (HPC)
[5] = dose: 100.0 mg/kg/injection, schedule: Q01DX009 (ip), vehicle: saline with Tween-80
[6] = dose: 100.0 mg/kg/injection, schedule: Q04DX003 (ip), vehicle: saline with Tween-80
[7] = dose: 200.0 mg/kg/injection, schedule: Q01DX009 (ip), vehicle: saline with Tween-80
[8] = dose: 200.0 mg/kg/injection, schedule: Q04DX003 (ip), vehicle: saline with Tween-80
[9] = dose: 400.0 mg/kg/injection, schedule: Q04DX003 (ip), vehicle: saline with Tween-80
[10] = dose: 100.0 mg/kg/injection, schedule: Q01DX001 (ip), vehicle: saline
[11] = dose: 200.0 mg/kg/injection, schedule: Q01DX001 (ip), vehicle: saline
[12] = dose: 200.0 mg/kg/injection, schedule: Q01DX009 (ip), vehicle: saline
[13] = dose: 400.0 mg/kg/injection, schedule: Q01DX001 (ip), vehicle: saline
[14] = dose: 400.0 mg/kg/injection, schedule: Q01DX009 (ip), vehicle: saline
[15] = dose: 50.0 mg/kg/injection, schedule: Q04DX003 (ip), vehicle: Klucel (hydroxypropylcellulose) (HPC)
[16] = dose: 50.0 mg/kg/injection, schedule: Q01DX009 (ip), vehicle: saline with Tween-80

For `CC1=CC(=N/S(=O)(=O)c2ccccc2)/C2CC(C)=C(C)CC2/C1=N\S(=O)(=O)c1ccccc1` (configuration not stated), the T/C [1] was 95 % of control, the T/C [2] was 95 % of control and the T/C [3] was 104 % of control. The T/C [4] was 92 % of control and the T/C (dose: 400.0 mg/kg/injection, schedule: Q01DX009 (ip), vehicle: Klucel (hydroxypropylcellulose) (HPC)) was 103 % of control.

With `CC(C)(C)Cc1cc(O)c2c(c1O)C(=O)c1ccccc1C2=O` the T/C [5] was 98 % of control, the T/C [6] was 97 % of control and the T/C [7] was 98 % of control. For the same compound, the T/C [8] was 97 % of control, the T/C (dose: 400.0 mg/kg/injection, schedule: Q01DX009 (ip), vehicle: saline with Tween-80) was 96 % of control and the T/C [9] was 92 % of control.

In the case of `Cc1cc(N=[N+]([O-])c2ccc(N)c(C)c2)ccc1N`, the T/C [10] was 95 % of control, the T/C [11] was 91 % of control and the T/C [12] was 96 % of control. For the same compound, the T/C [13] was 93 % of control and the T/C [14] was 96 % of control.

With `CCN(CC)CC(C)Nc1ccc([N+](=O)[O-])c2sc3ccccc3c(=O)c12` (configuration not stated) the T/C (dose: 9.0 mg/kg/injection, schedule: Q01DX Z (ip), vehicle: carboxymethylcellulose (CMC)) was 122 % of control, the T/C (dose: 10.0 mg/kg/injection, schedule: Q01DX Z (ip), vehicle: other) was 107 % of control and the T/C (dose: 12.0 mg/kg/injection, schedule: Q01DX Z (ip), vehicle: methylcellulose (MC)) was 108 % of control and 112 % of control. The T/C (dose: 17.7 mg/kg/injection, schedule: Q01DX Z (ip), vehicle: carboxymethylcellulose (CMC)) was 108 % of control, the T/C (dose: 18.0 mg/kg/injection, schedule: Q01DX Z (ip), vehicle: methylcellulose (MC)) was 110 % of control and 114 % of control and the T/C (dose: 26.0 mg/kg/injection, schedule: Q01DX Z (ip), vehicle: carboxymethylcellulose (CMC)) was 122 % of control. The T/C (dose: 27.0 mg/kg/injection, schedule: Q01DX Z (ip), vehicle: carboxymethylcellulose (CMC)) was 122 % of control, the T/C (dose: 40.0 mg/kg/injection, schedule: Q01DX Z (ip), vehicle: carboxymethylcellulose (CMC)) was 175 % of control and the T/C (dose: 41.0 mg/kg/injection, schedule: Q01DX Z (ip), vehicle: carboxymethylcellulose (CMC)) was 169 % of control. The T/C (dose: 80.0 mg/kg/injection, schedule: Q01DX Z (ip), vehicle: carboxymethylcellulose (CMC)) was 170 % of control, the T/C (dose: 90.0 mg/kg/injection, schedule: Q01DX Z (ip), vehicle: other) was 171 % of control and the T/C (dose: 250.0 mg/kg/injection, schedule: Q## X000 (other), vehicle: carboxymethylcellulose (CMC)) was 158 % of control. For the same compound, the T/C (dose: 270.0 mg/kg/injection, schedule: Q01DX Z (ip), vehicle: other) was 97 % of control.

For `CCCCCCCCCc1cc(=O)n(-c2ccc(C(=O)OCC)cc2)n1C`, the T/C (dose: 12.5 mg/kg/injection, schedule: Q04DX003 (ip), vehicle: Klucel (hydroxypropylcellulose) (HPC)) was 105 % of control, the T/C (dose: 25.0 mg/kg/injection, schedule: Q04DX003 (ip), vehicle: Klucel (hydroxypropylcellulose) (HPC)) was 102 % of control and the T/C [15] was 97 % of control.

With `CCOC(=O)c1ccc(NC(=S)Nc2ncccc2C)cc1` the T/C (dose: 100.0 mg/kg/injection, schedule: Q04DX002 (ip), vehicle: saline with Tween-80) was 103 % of control, the T/C (dose: 200.0 mg/kg/injection, schedule: Q04DX002 (ip), vehicle: saline with Tween-80) was 103 % of control and the T/C (dose: 400.0 mg/kg/injection, schedule: Q04DX002 (ip), vehicle: saline with Tween-80) was 95 % of control.

`CCCCOC(=O)NCCSC(=O)OCCCC` was tested, and the T/C [6] was 101 % of control, the T/C [8] was 93 % of control and the T/C [9] was 95 % of control.

In the case of `COc1ccc(C(c2ccccc2)C(CO)CO)cc1` (configuration not stated), the T/C (dose: 75.0 mg/kg/injection, schedule: Q04DX002 (ip), vehicle: Klucel (hydroxypropylcellulose) (HPC)) was 90 % of control, the T/C (dose: 150.0 mg/kg/injection, schedule: Q04DX002 (ip), vehicle: Klucel (hydroxypropylcellulose) (HPC)) was 93 % of control and the T/C (dose: 300.0 mg/kg/injection, schedule: Q04DX002 (ip), vehicle: Klucel (hydroxypropylcellulose) (HPC)) was 87 % of control.

For `CCCCCCCC(C(C)=O)C(=O)OCC` (configuration not stated), the T/C (dose: 100.0 mg/kg/injection, schedule: Q01DX001 (ip), vehicle: saline with Tween-80) was 95 % of control, the T/C (dose: 200.0 mg/kg/injection, schedule: Q01DX001 (ip), vehicle: saline with Tween-80) was 103 % of control and the T/C (dose: 400.0 mg/kg/injection, schedule: Q01DX001 (ip), vehicle: saline with Tween-80) was 95 % of control.

`CC(=O)c1c(O)cc(C)[nH]c1=O` was tested, and the T/C [10] was 86 % of control, the T/C [11] was 89 % of control and the T/C [13] was 86 % of control.

In the case of `CC(C)(O)Cc1ccc(Br)cc1`, the T/C [16] was 95 % of control, the T/C [5] was 103 % of control and the T/C [7] was 111 % of control.

`Oc1[nH]c2ccccc2c1N=Nc1ccccn1` was tested, and the T/C (dose: 100.0 mg/kg/injection, schedule: Q01DX001 (ip), vehicle: other) was 93 % of control, the T/C (dose: 200.0 mg/kg/injection, schedule: Q01DX001 (ip), vehicle: other) was 101 % of control and the T/C (dose: 400.0 mg/kg/injection, schedule: Q01DX001 (ip), vehicle: other) was 104 % of control.

For `O=[N+]([O-])c1ccc(N/N=C/C#Cc2ccccc2)c([N+](=O)[O-])c1`, the T/C (dose: 50.0 mg/kg/injection, schedule: Q04DX002 (ip), vehicle: saline with Tween-80) was 88 % of control.

`NC(=O)NC=O` was tested, and the T/C (dose: 50.0 mg/kg/injection, schedule: Q01DX009 (ip), vehicle: Klucel (hydroxypropylcellulose) (HPC)) was 96 % of control, the T/C [15] was 101 % of control and the T/C [1] was 102 % of control. The T/C [2] was 105 % of control, the T/C [3] was 96 % of control and the T/C [4] was 115 % of control.

`O=C(COc1ccc(Cl)cc1Cl)Nc1cccnc1` was tested, and the T/C (dose: 100.0 mg/kg/injection, schedule: Q01DX001 (ip), vehicle: Klucel (hydroxypropylcellulose) (HPC)) was 93 % of control, the T/C [6] was 94 % of control and the T/C (dose: 200.0 mg/kg/injection, schedule: Q01DX001 (ip), vehicle: Klucel (hydroxypropylcellulose) (HPC)) was 89 % of control. For the same compound, the T/C [8] was 94 % of control and the T/C (dose: 400.0 mg/kg/injection, schedule: Q01DX001 (ip), vehicle: Klucel (hydroxypropylcellulose) (HPC)) was 96 % of control.

With `COc1ccc(NC(=O)CCN2CC2)cc1` the T/C (dose: 12.5 mg/kg/injection, schedule: Q01DX001 (ip), vehicle: saline) was 105 % of control, the T/C (dose: 25.0 mg/kg/injection, schedule: Q01DX001 (ip), vehicle: saline) was 97 % of control and the T/C (dose: 25.0 mg/kg/injection, schedule: Q01DX009 (ip), vehicle: saline with Tween-80) was 103 % of control. For the same compound, the T/C (dose: 50.0 mg/kg/injection, schedule: Q01DX001 (ip), vehicle: saline) was 103 % of control, the T/C [16] was 95 % of control and the T/C (dose: 100.0 mg/kg/injection, schedule: Q01DX001 (ip), vehicle: alcohol) was 93 % of control. For the same compound, the T/C [5] was 91 % of control and the T/C (dose: 200.0 mg/kg/injection, schedule: Q01DX001 (ip), vehicle: alcohol) was 86 % of control.

`COc1cc2c(cc1NC(C)=O)C(=O)CCCC2` was tested, and the T/C (dose: 50.0 mg/kg/injection, schedule: Q01DX009 (ip), vehicle: other) was 92 % of control, the T/C (dose: 100.0 mg/kg/injection, schedule: Q01DX009 (ip), vehicle: other) was 95 % of control and the T/C (dose: 200.0 mg/kg/injection, schedule: Q01DX009 (ip), vehicle: other) was 92 % of control.

For `CC1=CC(C)(C)Nc2ccccc21`, the T/C (dose: 100.0 mg/kg/injection, schedule: Q01DX009 (ip), vehicle: saline) was 118 % of control, the T/C (dose: 100.0 mg/kg/injection, schedule: Q04DX003 (ip), vehicle: saline) was 106 % of control and the T/C [12] was 103 % of control. The T/C (dose: 200.0 mg/kg/injection, schedule: Q04DX003 (ip), vehicle: saline) was 101 % of control, the T/C [14] was 116 % of control and the T/C (dose: 400.0 mg/kg/injection, schedule: Q04DX003 (ip), vehicle: saline) was 91 % of control.

For `CC12CCC3=C(OCCO3)C1=CCC1C2CCC2(C)C(O)CCC12` (configuration not stated), the T/C (dose: 50.0 mg/kg/injection, schedule: Q01DX001 (sc), vehicle: steriod suspending solution) was 95 % of control, the T/C (dose: 100.0 mg/kg/injection, schedule: Q01DX001 (sc), vehicle: steriod suspending solution) was 91 % of control and the T/C (dose: 200.0 mg/kg/injection, schedule: Q01DX001 (sc), vehicle: steriod suspending solution) was 103 % of control. The T/C (dose: 400.0 mg/kg/injection, schedule: Q01DX001 (sc), vehicle: steriod suspending solution) was 101 % of control.

In the case of `CCCCCCCC[As](C)(=O)O`, the T/C (dose: 6.25 mg/kg/injection, schedule: Q01DX009 (ip), vehicle: saline with Tween-80) was 89 % of control.

— PubChem BioAssay AID248 (DTP/NCI, 2004)
